Values quoted from earlier work in US20090029020A1, “CYCLODEXTRIN INCLUSION COMPLEXES AND METHODS OF PREPARING SAME” (CARGILL, INCORPORATED, priority 2005, published 2009).
Where two headings read alike, the source gives them in different places. Residues, ends and D or L forms follow the SMILES beside them.

Details: octanol/water partition coefficient

Row | log P (Table 1A) | log P (Table 9) | Structure (SMILES)
1 | 2.26 | 2.26 | CCOC(=O)CC(C)C [ethyl isovalerate]
2 | 1.48 | 1.48 | CC(=O)CCc1ccc(O)cc1 [raspberry ketone]
3 | −3.72 | −3.72 | CN(CC(=O)O)C(=N)N [creatine]
4 | 0.07 | 0.07 | COC(=O)[C@H](Cc1ccccc1)NC(=O)[C@@H](N)CC(=O)O [aspartame] (H-Asp-Phe-OMe)
5 | −0.18 | −0.18 | CCOC(=O)C(C)O (stereo not drawn) [ethyl lactate]
6 |  | 3.38 | C=CC(C)(O)CCC=C(C)C (stereo not drawn) [linalool]
7 | 1.50 | 1.50 | CCOc1cc(C=O)ccc1O [ethyl vanillin]
8 | −1.34 | −1.34 | CC(=O)C(C)=O [diacetyl]
9 | −0.19 | −0.19 | Cc1occc(=O)c1O [maltol]
10 | −0.17 | −0.17 | CC=O [acetaldehyde]
11 | −2.15 | −2.15 | O=C(O)[C@@H]1CCCN1 [proline]
12 | 0.92 | 0.92 | CSC [dimethyl sulfide]
13 | 0.30 | 0.30 | CCc1occc(=O)c1O [ethyl maltol]
14 | 0.29 | 0.29 | CCOC(=O)CCC(C)=O [ethyl levulinate]
15 | 4.10 | 4.10 | Cc1ccc(C(C)C)cc1 [p-cymene]
16 | 0.82 | 0.82 | CC1=C(O)C(=O)C(C)O1 (stereo not drawn) [furaneol]
17 | −0.74 | −0.74 | CO [methanol]
18 | 1.77 | 1.77 | CCOC(=O)C(C)C [ethyl isobutyrate]
19 | 3.36 | 3.36 | ClC1CCCCC1 [chlorocyclohexane (CCH), chlorocyclohexane]

Row | Structure (SMILES) | log P (Table 1A) | log P (Table 9)
20 | C=C(C)[C@H]1CC=C(C)CC1 [limonene] | 4.83 | 4.83
